Assays:
Erysiphe graminis [1] = assay: Powdery mildew of barley, systemic root uptake (BMS); assay type: in vivo; settings: 45 ml of 250 mg/l, 8 days after inoculation
In short: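 Pot soil of barley (BMS) and cucumber (CMS) plants was drenched with 45 ml of a 250 mg/l acetone/Tween 20 aqueous emulsion, with untreated plants as controls. Disease was scored on a rating scale that included intermediate grades.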

Uromyces phaseoli = assay: Bean rust fungus eradicant test (URO PHA); assay type: in vivo; settings: Uromyces phaseoli, 216 h, pinto bean, eradicant spray 2 days after inoculation, 1,000 mg/l; read-out: Percent Reduction of Disease, URO PHA
In short: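 Seven-day-old pinto bean plants (Phaseolus vulgaris, primary leaf) were inoculated with 20,000 spores/ml, held 24 h at 99% humidity and 21° C., then sprayed two days post-inoculation with acetone/TWEEN 20 emulsions at 1,000 mg/l. After nine days in a 21° C. greenhouse, disease was scored as percent reduction versus unsprayed controls.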

Erysiphe graminis [2] = assay: Powdery mildew in barley, foliar application (ERY GRA); assay type: in vivo; settings: Blumeria graminis, foliar, 192 h, foliar, 1,000 mg/l, 8 days after inoculation, read-out: Percent Reduction of Disease, ERY GRA
In short: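 'Robust' barley plants sprayed with acetone/TWEEN 20 aqueous emulsion at 1,000 mg/l, dried, then kept at 21° C in a greenhouse. Inoculated by distributing Erysiphe graminis spores from infected plants. Percent control computed from disease scores vs unsprayed control pots.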

Pyricularia oryzae = assay: whole plant or invertebrate; assay type: in vivo; settings: Pyricularia oryzae, in Hordeum vulgare, foliar, 216 h, read-out: Percent Reduction of Disease, PYR ORY, barley, foliar, 1,000 mg/l
Helminthosporium sativum = assay: Barley spot blotch, foliar treatment (HEL SAT); assay type: in vivo; settings: Helminthosporium, foliar, 216 h, foliar, 1,000 mg/l, read-out: Percent Reduction of Disease, HEL SAT
In short: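 Percent control of H. sativum blotch was computed after foliar spraying of six-day-old "Robust" barley (10 plants/pot) at 1,000 mg/l versus unsprayed pots. Spore inoculation followed spraying, then 24 h in a 99% humidity chamber and eight days in a 21° C greenhouse.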

Pythium ultimum = assay: Fungal growth inhibition, treated disc on agar (PYT ULT); assay type: cell-based; settings: Globisporangium ultimum, disc dipped in 500 mg/l, 29° C., read-out: Percent Growth Inhibition, PYT ULT
Scierotinia minor = assay: Fungal growth inhibition, treated disc on agar (SCL MIN); assay type: cell-based; settings: disc dipped in 500 mg/l, 29° C., read-out: Percent Growth Inhibition, SCL MIN
Source text: Filter paper discs, each 11 mm. in diameter, were dipped in each of the test solutions. The discs were allowed to air dry to drive off the acetone solvent. A number of untreated discs were used as controls.
The treated and untreated discs were then placed on agar plates and one of the following fungus species: Septoria nodorum (SEP NOD), Botrytis cinerea (BOT CIN), Fusarium oxysporum (FUS OXY), Pythium ultimum (PYT ULT), Rhizoctonia solani (RHI SOL), Colletotrichum gossypii (COL GOS), and Scierotinia minor (SCL MIN), was added to the center of each disc in the form of a culture plug with the fungus mat in contact with the paper of the test disc. Cercosporidium personatum (CER PER), was added to discs as a spore suspension (20,000 spores/ml) to the disc (two drops of spore suspension per disc), rather than a mycelial culture plug. The plates were then incubated at 29° C. in an oven.
With the exception of the discs containing Cercosporidium personatum, the discs were evaluated by first measuring the radius from the center of the fungus colony on the treated discs and on the untreated discs. Percent growth inhibition of each of the compounds tested was determined as a function of the difference between the radius of the fungus colony on the treated disc versus the radius of the fungus colony on the untreated disc.

Rhizoctonia solani = assay: Fungal growth inhibition, treated disc on agar (RHI SOL); assay type: cell-based; settings: Rhizoctonia solani, disc dipped in 500 mg/l, 29° C., read-out: Percent Growth Inhibition, RHI SOL
Fusarium oxysporum = assay: Fungal growth inhibition, treated disc on agar (FUS OXY); assay type: cell-based; settings: Fusarium oxysporum, disc dipped in 500 mg/l, 29° C., read-out: Percent Growth Inhibition, FUS OXY

For `CCCC(C#N)(CCCc1ccccc1OC)c1cccnc1` (stereo not drawn) [Compound 71], the “Percent Reduction of Disease, BMS” value (Erysiphe graminis [1]) was 100%, the pest or weed control at 1000 µg/mL (Uromyces phaseoli) was 92% and the pest or weed control at 1000 µg/mL (Erysiphe graminis [2]) was 100%. For the same compound, the pest or weed control at 1000 µg/mL (Pyricularia oryzae) was 0%, the pest or weed control at 1000 µg/mL (Helminthosporium sativum) was 100% and the inhibition at 500 µg/mL (Pythium ultimum) was 60%. The inhibition at 500 µg/mL (Scierotinia minor) was 100%, the inhibition at 500 µg/mL (Rhizoctonia solani) was 6% and the inhibition at 500 µg/mL (Fusarium oxysporum) was 72%.

`CCCC(C#N)(CCc1ccccc1C(F)(F)F)c1cccnc1` (stereo not drawn) [Compound 72] was tested, and the “Percent Reduction of Disease, BMS” value (Erysiphe graminis [1]) was 90%, the pest or weed control at 1000 µg/mL (Uromyces phaseoli) was 0% and the pest or weed control at 1000 µg/mL (Erysiphe graminis [2]) was 100%. It also gave a pest or weed control at 1000 µg/mL (Pyricularia oryzae) of 0%, a pest or weed control at 1000 µg/mL (Helminthosporium sativum) of 83% and an inhibition at 500 µg/mL (Pythium ultimum) of 71%. It also gave an inhibition at 500 µg/mL (Scierotinia minor) of 100%, an inhibition at 500 µg/mL (Rhizoctonia solani) of 38% and an inhibition at 500 µg/mL (Fusarium oxysporum) of 16%.

For `CCCCC(C#N)(CCc1ccccc1C(F)(F)F)c1cccnc1` (stereo not drawn) [Compound 73], the “Percent Reduction of Disease, BMS” value (Erysiphe graminis [1]) was 100%, the pest or weed control at 1000 µg/mL (Uromyces phaseoli) was 100% and the pest or weed control at 1000 µg/mL (Erysiphe graminis [2]) was 100%. For the same compound, the pest or weed control at 1000 µg/mL (Pyricularia oryzae) was 0%, the pest or weed control at 1000 µg/mL (Helminthosporium sativum) was 100% and the inhibition at 500 µg/mL (Pythium ultimum) was 69%. For the same compound, the inhibition at 500 µg/mL (Scierotinia minor) was 100%, the inhibition at 500 µg/mL (Rhizoctonia solani) was 34% and the inhibition at 500 µg/mL (Fusarium oxysporum) was 75%.

In the case of `CCCCC(C#N)(CCc1ccccc1F)c1cccnc1` (stereo not drawn) [Compound 74], the “Percent Reduction of Disease, BMS” value (Erysiphe graminis [1]) is reported as 100%, the pest or weed control at 1000 µg/mL (Uromyces phaseoli) is reported as 92% and the pest or weed control at 1000 µg/mL (Erysiphe graminis [2]) is reported as 100%. It also gave a pest or weed control at 1000 µg/mL (Pyricularia oryzae) of 0%, a pest or weed control at 1000 µg/mL (Helminthosporium sativum) of 100% and an inhibition at 500 µg/mL (Pythium ultimum) of 36%. It also gave an inhibition at 500 µg/mL (Scierotinia minor) of 100%, an inhibition at 500 µg/mL (Rhizoctonia solani) of 100% and an inhibition at 500 µg/mL (Fusarium oxysporum) of 3%.

For `CCCC(C#N)(CCc1ccccc1F)c1cccnc1` (stereo not drawn) [Compound 75], the “Percent Reduction of Disease, BMS” value (Erysiphe graminis [1]) was 100%, the pest or weed control at 1000 µg/mL (Uromyces phaseoli) was 83% and the pest or weed control at 1000 µg/mL (Erysiphe graminis [2]) was 92%. It also gave a pest or weed control at 1000 µg/mL (Pyricularia oryzae) of 0%, a pest or weed control at 1000 µg/mL (Helminthosporium sativum) of 92% and an inhibition at 500 µg/mL (Pythium ultimum) of 1%. The inhibition at 500 µg/mL (Scierotinia minor) was 92%, the inhibition at 500 µg/mL (Rhizoctonia solani) was 100% and the inhibition at 500 µg/mL (Fusarium oxysporum) was 100%.

In the case of `CCCCC(C#N)(CCCc1ccc(OC)cc1)c1cccnc1` (stereo not drawn) [Compound 76], the “Percent Reduction of Disease, BMS” value (Erysiphe graminis [1]) is reported as 0%, the pest or weed control at 1000 µg/mL (Uromyces phaseoli) is reported as 67% and the pest or weed control at 1000 µg/mL (Erysiphe graminis [2]) is reported as 100%. For the same compound, the pest or weed control at 1000 µg/mL (Pyricularia oryzae) was 0%, the pest or weed control at 1000 µg/mL (Helminthosporium sativum) was 100% and the inhibition at 500 µg/mL (Pythium ultimum) was 0%. It also gave an inhibition at 500 µg/mL (Scierotinia minor) of 100%, an inhibition at 500 µg/mL (Rhizoctonia solani) of 6% and an inhibition at 500 µg/mL (Fusarium oxysporum) of 50%.

With `N#CC(CCc1ccc(F)cc1)(CCC(F)(F)F)c1cccnc1` (stereo not drawn) [Compound 77] the “Percent Reduction of Disease, BMS” value (Erysiphe graminis [1]) was 100%, the pest or weed control at 1000 µg/mL (Uromyces phaseoli) was 90% and the pest or weed control at 1000 µg/mL (Erysiphe graminis [2]) was 90%. For the same compound, the pest or weed control at 1000 µg/mL (Pyricularia oryzae) was 35%, the pest or weed control at 1000 µg/mL (Helminthosporium sativum) was 90% and the inhibition at 500 µg/mL (Pythium ultimum) was 30%. It also gave an inhibition at 500 µg/mL (Scierotinia minor) of 40%, an inhibition at 500 µg/mL (Rhizoctonia solani) of 40% and an inhibition at 500 µg/mL (Fusarium oxysporum) of 55%.

With `N#CC(CCCC(F)(F)F)(CCc1ccc(F)cc1)c1cccnc1` (stereo not drawn) [Compound 78] the “Percent Reduction of Disease, BMS” value (Erysiphe graminis [1]) was 100%, the pest or weed control at 1000 µg/mL (Uromyces phaseoli) was 83% and the pest or weed control at 1000 µg/mL (Erysiphe graminis [2]) was 100%. For the same compound, the pest or weed control at 1000 µg/mL (Pyricularia oryzae) was 100%, the pest or weed control at 1000 µg/mL (Helminthosporium sativum) was 83% and the inhibition at 500 µg/mL (Pythium ultimum) was 0%. It also gave an inhibition at 500 µg/mL (Scierotinia minor) of 20%, an inhibition at 500 µg/mL (Rhizoctonia solani) of 0% and an inhibition at 500 µg/mL (Fusarium oxysporum) of 40%.

`Cc1ccc(CCC(C#N)(CCCC(F)(F)F)c2cccnc2)cc1` (stereo not drawn) [Compound 79] was tested, and the “Percent Reduction of Disease, BMS” value (Erysiphe graminis [1]) was 92%, the pest or weed control at 1000 µg/mL (Uromyces phaseoli) was 0% and the pest or weed control at 1000 µg/mL (Erysiphe graminis [2]) was 100%. It also gave a pest or weed control at 1000 µg/mL (Pyricularia oryzae) of 11%, a pest or weed control at 1000 µg/mL (Helminthosporium sativum) of 100% and an inhibition at 500 µg/mL (Pythium ultimum) of 0%. For the same compound, the inhibition at 500 µg/mL (Scierotinia minor) was 5%, the inhibition at 500 µg/mL (Rhizoctonia solani) was 35% and the inhibition at 500 µg/mL (Fusarium oxysporum) was 46%.

With `Cc1ccc(CCC(C#N)(CCC(F)(F)F)c2cccnc2)cc1` (stereo not drawn) [Compound 80] the “Percent Reduction of Disease, BMS” value (Erysiphe graminis [1]) was 100%, the pest or weed control at 1000 µg/mL (Uromyces phaseoli) was 83% and the pest or weed control at 1000 µg/mL (Erysiphe graminis [2]) was 100%. For the same compound, the pest or weed control at 1000 µg/mL (Pyricularia oryzae) was 78%, the pest or weed control at 1000 µg/mL (Helminthosporium sativum) was 100% and the inhibition at 500 µg/mL (Pythium ultimum) was 7%. For the same compound, the inhibition at 500 µg/mL (Scierotinia minor) was 5%, the inhibition at 500 µg/mL (Rhizoctonia solani) was 62% and the inhibition at 500 µg/mL (Fusarium oxysporum) was 24%.
